Assay results as given in ChEMBL document CHEMBL4699535, “Dolabellane and Clerodane Diterpenoids from the Twigs and Leaves of Casearia kurzii” (J Nat Prod, 2020).
Values belong to the molecule of their own block, whether it stands above or below them.

Tests used:
A549 [1] = assay: Antiproliferative activity against human A549 cells assessed as reduction in cell viability after 24 to 72 hrs by MTT assay; assay type: functional, cell-based
[2] = molecular target: NAD(P)H dehydrogenase [quinone] 1 (Mus musculus) (UniProt Q64669); assay: Induction of quinone reductase in mouse Hepa1c1c7 cells at 100 uM incubated for 24 hrs by MTT based assay; assay type: cell-based; details: filed as activator
A549 [3] = assay: Induction of cell cycle arrest in human A549 cells assessed as accumulation at S phase at 5 uM after 24 hrs by propodium iodide staining based flow cytometric analysis (reference value: 23.42 to 28.6%); assay type: functional
A549 [4] = assay: Induction of cell cycle arrest in human A549 cells assessed as accumulation at G2/M phase at 5 uM after 24 hrs by propodium iodide staining based flow cytometric analysis (reference value: 10.66 to 10.98%); assay type: functional
A549 [5] = assay: Induction of cell cycle arrest in human A549 cells assessed as accumulation at G0/G1 phase at 10 uM after 24 hrs by propodium iodide staining based flow cytometric analysis (reference value: 60.74 to 65.6%); assay type: functional
A549 [6] = assay: Induction of cell cycle arrest in human A549 cells assessed as accumulation at S phase at 10 uM after 24 hrs by propodium iodide staining based flow cytometric analysis (reference value: 23.42 to 28.6%); assay type: functional
A549 [7] = assay: Induction of cell cycle arrest in human A549 cells assessed as accumulation at G2/M phase at 10 uM after 24 hrs by propodium iodide staining based flow cytometric analysis (reference value: 10.66 to 10.98%); assay type: functional
A549 [8] = assay: Induction of cell cycle arrest in human A549 cells assessed as accumulation at G0/G1 phase at 20 uM after 24 hrs by propodium iodide staining based flow cytometric analysis (reference value: 60.74 to 65.6%); assay type: functional
A549 [9] = assay: Induction of cell cycle arrest in human A549 cells assessed as accumulation at S phase at 20 uM after 24 hrs by propodium iodide staining based flow cytometric analysis (reference value: 23.42 to 28.6%); assay type: functional
A549 [10] = assay: Induction of cell cycle arrest in human A549 cells assessed as accumulation at G2/M phase at 20 uM after 24 hrs by propodium iodide staining based flow cytometric analysis (reference value: 10.66 to 10.98%); assay type: functional
A549 [11] = assay: Induction of apoptosis in human A549 cells assessed as early apoptotic cells at 10 uM after 24 hrs by Annexin-V FITC/PI staining based flow cytometry analysis (reference value: 3.97 to 4.33%); assay type: functional
A549 [12] = assay: Induction of apoptosis in human A549 cells assessed as late apoptotic cells at 10 uM after 24 hrs by Annexin-V FITC/PI staining based flow cytometry analysis (reference value: 9.6%); assay type: functional
A549 [13] = assay: Induction of apoptosis in human A549 cells assessed as early apoptotic cells at 20 uM after 24 hrs by Annexin-V FITC/PI staining based flow cytometry analysis (reference value: 3.97 to 4.33%); assay type: functional
A549 [14] = assay: Induction of apoptosis in human A549 cells assessed as late apoptotic cells at 20 uM after 24 hrs by Annexin-V FITC/PI staining based flow cytometry analysis (reference value: 9.6%); assay type: functional
[15] = molecular target: NAD(P)H dehydrogenase [quinone] 1 (Mus musculus) (UniProt Q64669); assay: Induction of quinone reductase in mouse Hepa1c1c7 cells at 50 uM incubated for 24 hrs by MTT based assay; assay type: cell-based; details: filed as activator
A549 [16] = assay: Induction of cell cycle arrest in human A549 cells assessed as accumulation at G0/G1 phase at 5 uM after 24 hrs by propodium iodide staining based flow cytometric analysis (reference value: 60.74 to 65.6%); assay type: functional
[17] = Homo sapiens, A549, read-out: IC50

Sequence of NAD(P)H dehydrogenase [quinone] 1 (Mus musculus) (Q64669 whole entry): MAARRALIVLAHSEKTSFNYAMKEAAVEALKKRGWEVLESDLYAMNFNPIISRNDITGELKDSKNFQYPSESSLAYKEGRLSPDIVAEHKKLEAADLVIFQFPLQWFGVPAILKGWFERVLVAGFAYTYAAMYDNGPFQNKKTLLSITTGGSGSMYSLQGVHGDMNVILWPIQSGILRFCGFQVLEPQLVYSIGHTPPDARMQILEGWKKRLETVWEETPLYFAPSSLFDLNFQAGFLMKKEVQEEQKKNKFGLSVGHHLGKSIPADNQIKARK

- fold change (FC) [2]: 1.5
- IC50 (A549 [1]; a549): Not Active
SMILES: C=C1CC[C@@H]2[C@@](C)(C/C=C(\C)CC[C@@H]1O)CC[C@@]2(O)C(C)C

- fold change (FC) [2]: 1.5
- IC50 (A549 [1]; a549): Not Active
SMILES: C/C1=C\C[C@@]2(C)CC[C@@](O)(C(C)C)[C@@H]2C/C=C(\C)[C@@H](O)CC1

- fold change (FC) [2]: 1.5
- IC50 (A549 [1]; a549): Not Active
SMILES: C/C1=C\CC[C@]2(C)O[C@H]2C[C@@H]2C(=O)C=C(C(C)C)[C@@]2(O)CC1

- fold change (FC) [15]: 1.4
- IC50 (A549 [1]; a549): Not Active
SMILES: CC1=CC[C@H](O)[C@@]2(C)CC[C@@H]3[C@](C)(CC[C@@]3(O)C(C)C)C[C@H]12

- fold change (FC) [2]: 1.9
- IC50 (A549 [1]; a549): Not Active
SMILES: C/C1=C\CC[C@@]2(C)O[C@@H]2C[C@H]2C(=O)C=C(C(C)C)[C@]2(O)CC1

- IC50 (A549 [1]; a549): Not Active
SMILES: CC(=O)O[C@H]1O[C@@H](OC(C)=O)[C@]23C1=C[C@H](OC(=O)C(C)C)C[C@H]2[C@](C)(C/C=C(\C)C=O)[C@H](C)C[C@@H]3O

- IC50 (A549 [1]; a549): Not Active
SMILES: CC1=C2C[C@@]3(C)CC[C@@](O)(C(C)C)[C@@H]3CC[C@]2(C)[C@@H](O)CC1

- fold change (FC) [2]: 1.5
- IC50 (A549 [1]; a549): Not Active
SMILES: C/C1=C/C[C@@H]2[C@@](C)(C/C=C(\C)CC[C@@H]1O)CC[C@@]2(O)C(C)C

Further lines, the molecule ahead of its results:

SMILES: C=C/C(C)=C/C[C@]1(C)[C@H](C)C[C@H](OC(=O)CC(C)C)[C@@]23C(=C[C@H](O)C[C@@H]12)[C@@H](OC(C)=O)O[C@H]3OC(C)=O
- IC50 (A549 [1]; a549): Not Active

SMILES: C=C/C(C)=C/C[C@]1(C)[C@H](C)C[C@H](OC(=O)C(C)C)[C@@]23C(=C[C@H](O)C[C@@H]12)[C@@H](OC(C)=O)O[C@H]3OC(C)=O
- IC50 (A549 [1]; a549): Not Active

SMILES: CC(=O)O[C@H]1O[C@@H](OC(C)=O)[C@]23C1=C[C@H](OC(=O)CC(C)C)C[C@H]2[C@](C)(C/C=C(\C)C=O)[C@H](C)C[C@@H]3O
- IC50 (A549 [1]; [17]): 4.4 µM
- Activity (A549 [3]): 27.45%
- Activity (A549 [4]): 11.09%
- Activity (A549 [5]): 56.99%
- Activity (A549 [6]): 23.87%
- Activity (A549 [7]): 19.14%
- Activity (A549 [8]): 44.84%
- Activity (A549 [9]): 34.59%
- Activity (A549 [10]): 20.56%
- Activity (A549 [11]): 6.04%
- Activity (A549 [12]): 9.94%
- Activity (A549 [13]): 13.7%
- Activity (A549 [14]): 25.27%

SMILES: C=C/C(C)=C/C[C@]1(C)[C@H](C)C[C@H](OC(=O)[C@@H](C)CC)[C@@]23C(=CC(=O)C[C@@H]12)[C@@H](OC(C)=O)O[C@H]3OC(C)=O
- IC50 (A549 [1]; a549): Not Active

SMILES: C=C/C(C)=C/C[C@]1(C)[C@H](C)C[C@H](OC(=O)[C@@H](C)CC)[C@@]23C(=C[C@H](O)C[C@@H]12)[C@@H](OC(C)=O)O[C@H]3OC(C)=O
- IC50 (A549 [1]; a549): Not Active

SMILES: C=CC(=C)[C@H](O)C[C@]1(C)[C@H](C)C[C@H](O)[C@@]23C(=C[C@H](OC(=O)CC(C)C)C[C@@H]12)[C@@H](OC(C)=O)O[C@H]3OC(C)=O
- IC50 (A549 [1]; [17]): 4.6 µM
- Activity (A549 [16]): 64.17%
- Activity (A549 [3]): 24.62%
- Activity (A549 [4]): 11.21%
- Activity (A549 [5]): 55.45%
- Activity (A549 [6]): 31.33%
- Activity (A549 [7]): 13.21%
- Activity (A549 [8]): 38.95%
- Activity (A549 [9]): 61.05%
- Activity (A549 [10]): 0%
- Activity (A549 [11]): 5.44%
- Activity (A549 [12]): 10.45%
- Activity (A549 [13]): 10.41%
- Activity (A549 [14]): 35.73%

SMILES: CC(=O)O[C@H]1O[C@@H](OC(C)=O)[C@]23C1=C[C@H](OC(=O)CC(C)C)C[C@H]2[C@](C)(C/C=C/C=O)[C@H](C)C[C@@H]3O
- IC50 (A549 [1]; a549): Not Active
